Data taken from patent publication US20180208605A1, “Substituted Aza Compounds as IRAK-4 Inhibitors” (AURIGENE DISCOVERY TECHNOLOGIES LIMITED, priority 2015, published 2018).
Structures can show the parent of a compound that is named as a salt.

Target: T1, recombinant IRAK-4 kinase (Homo sapiens, UniProt Q9NWZ3)
T1 construct: purchased Millipore, USA
T1 sequence (Q9NWZ3 1-460): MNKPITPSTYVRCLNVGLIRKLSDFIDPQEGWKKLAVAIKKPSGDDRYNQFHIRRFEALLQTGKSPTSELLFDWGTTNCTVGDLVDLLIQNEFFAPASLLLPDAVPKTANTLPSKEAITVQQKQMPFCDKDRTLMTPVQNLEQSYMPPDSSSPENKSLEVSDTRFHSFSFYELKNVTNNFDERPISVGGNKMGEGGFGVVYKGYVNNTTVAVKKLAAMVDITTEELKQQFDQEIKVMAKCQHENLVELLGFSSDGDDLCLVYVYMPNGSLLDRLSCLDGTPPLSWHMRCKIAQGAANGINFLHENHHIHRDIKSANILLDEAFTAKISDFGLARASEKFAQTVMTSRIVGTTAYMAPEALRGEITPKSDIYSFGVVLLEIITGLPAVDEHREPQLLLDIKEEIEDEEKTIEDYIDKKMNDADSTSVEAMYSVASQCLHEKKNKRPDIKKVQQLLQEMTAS
Assay: IRAK-4 Biochemical Assay (TR-FRET, percent inhibition)
Conditions: TR-FRET, 20 μM ATP, 100 nM Biotin Histone H3; for inhibition at 0.1 µM: read-out: % inhibition of IRAK-4 @0.1 μM, compound at 0.1 μM; for inhibition at 1 µM: read-out: % inhibition of IRAK-4 @ 1 μM, compound at 1 μM
Experimental: Compounds were tested for their potential to inhibit IRAK-4 enzyme in a TR-FRET assay using recombinant IRAK-4 kinase from Millipore, USA. The assay buffer was 50 mM Tris-HCl pH 7.5, 20 mM MgCl2, 1 mM EGTA, 2 mM DTT, 3 mM MnCl2 and 0.01% Tween 20.5 ng of IRAK-4 kinase was used for the assay. After pre-incubation of enzyme with test compound for 30 minutes at room temperature, a substrate mixture containing 100 nM Biotin Histone H3 (Millipore, USA) and 20 μM ATP (Sigma, USA) was added and the reaction was incubated for 30 min. Post incubation, the reaction was stopped by the addition of stop mix containing 40 mM EDTA, 1 nM of Europium-Anti-Phospho-Histone H3 (Ser10) antibody (Perkin Elmer, USA) and 20 nM SureLight Allophycocyanin-Streptavidin (Perkin Elmer, USA). The fluorescence emission at 615 nm and 665 nm were measured at an excitation of 340 nm and the percent inhibition was estimated from the ratio of the fluorescence intensities [(F665/F615)×10000].

Row | Structure (SMILES) | inhibition at 0.1 µM | inhibition at 1 µM
1 | O=C(Nc1cc2sc(N3CCOCC3)nc2nc1N1CCCCC1)c1cccc(N2CCC(CCO)CC2)n1 [Example 35, 6-(4-(2-hydroxyethyl)piperidin-1-yl)-N-(2-morpholino-5-(piperidin-1-yl)thiazolo[4,5-b]pyridin-6-yl)picolinamide] | 92% | 95%
2 | O=C(Nc1cc2sc(N3CCOCC3)nc2nc1N1CCCCC1)c1cccc(N2CC3CC2CO3)n1 (stereo not drawn) [Example 45, 6-(2-oxa-5-azabicyclo[2.2.1]heptan-5-yl)-N-(2-morpholino-5-(piperidin-1-yl)thiazolo[4,5-b]pyridin-6-yl)picolinamide] | 95% | 97%
3 | Nc1cc(-c2cccc(C(=O)Nc3cc4sc(N5CCOCC5)nc4nc3N3CCCCC3)n2)ccn1 [Example 83, 2′-amino-N-(2-morpholino-5-(piperidin-1-yl)thiazolo[4,5-b]pyridin-6-yl)-[2,4′-bipyridine]-6-carboxamide] | 99% | 98%
4 | NCC(=O)O[C@H]1CCN(c2nccc(C(=O)Nc3cc4sc(N5CCOCC5)nc4nc3N3CCCCC3)n2)C1 [Example 64, (S)-1-(4-((2-morpholino-5-(piperidin-1-yl)thiazolo[4,5-b]pyridin-6-yl)carbamoyl)pyrimidin-2-yl)pyrrolidin-3-yl glycinate] | 74% | 92%
5 | O=C(Nc1cc2sc(N3CCOCC3)nc2nc1N1CCC[C@@H](O)C1)c1cccc(N2CCCCCC2)n1 [Example 39, (R)-6-(azepan-1-yl)-N-(5-(3-hydroxypiperidin-1-yl)-2-morpholinothiazolo[4,5-b]pyridin-6-yl)picolinamide] | 83% | 98%
6 | O=C(Nc1cc2sc(N3CCOCC3)nc2nc1N1CCC(O)(CO)CC1)c1cccc(N2CC[C@H](O)C2)n1 [Example 8, (S)-N-(5-(4-hydroxy-4-(hydroxymethyl)piperidin-1-yl)-2-morpholinothiazolo[4,5-b]pyridin-6-yl)-6-(3-hydroxypyrrolidin-1-yl)picolinamide hydrochloride] | 97% | 98%
7 | O=C(Nc1cc2sc(N3CCOCC3)nc2nc1N1CCCCC1)c1cccc(NCC2CCOCC2)n1 [Example 37, N-(2-morpholino-5-(piperidin-1-yl)thiazolo[4,5-b]pyridin-6-yl)-6-(((tetrahydro-2H-pyran-4-yl)methyl)amino)picolinamide] | 75% | 95%
8 | Cc1cc(-c2nc(C(=O)Nc3cc4sc(N5CCOCC5)nc4nc3OC3CCC(N4CCOCC4)CC3)co2)ccn1 (stereo not drawn) [Example 6, 2-(2-methylpyridin-4-yl)-N-(2-morpholino-5-(((1r,4r)-4-morpholinocyclohexyl)oxy)thiazolo[4,5-b]pyridin-6-yl)oxazole-4-carboxamide hydrochloride] | 100% | 100%
9 | COc1ccc(-c2nc(C(=O)Nc3cc4sc(N5CCOCC5)nc4nc3N3CCCCC3)co2)nc1 [Example 74, 2-(5-methoxypyridin-2-yl)-N-(2-morpholino-5-(piperidin-1-yl)thiazolo[4,5-b]pyridin-6-yl)oxazole-4-carboxamide] | 89% | 95%
10 | Nc1ccc(-c2cccc(C(=O)Nc3cc4sc(N5CCOCC5)nc4nc3N3CCCCC3)n2)cn1 [Example 75, 6′-amino-N-(2-morpholino-5-(piperidin-1-yl)thiazolo[4,5-b]pyridin-6-yl)-[2,3′-bipyridine]-6-carboxamide] | 98% | 78%
11 | O=C(Nc1cc2sc(N3CCOCC3)nc2nc1N1CCCCC1)c1cccc(NC2CCC(CO)CC2)n1 (stereo not drawn) [Example 46, 6-((4-(hydroxymethyl)cyclohexyl)amino)-N-(2-morpholino-5-(piperidin-1-yl)thiazolo[4,5-b]pyridin-6-yl)picolinamide] | 75% | 94%
12 | O=C(Nc1cc2sc(N3CCOCC3)nc2nc1N1CCCCC1)c1cccc(-n2cc(CO)cn2)n1 [Example 69, 6-(4-(hydroxymethyl)-1H-pyrazol-1-yl)-N-(2-morpholino-5-(piperidin-1-yl)thiazolo[4,5-b]pyridin-6-yl)picolinamide] | 98% | 99%
13 | O=C(Nc1cc2sc(N3CCOCC3)nc2nc1N1CCOCC1)c1cccc(N2CCC(O)C2)n1 (stereo not drawn) [Example 76, N-(2,5-dimorpholinothiazolo[4,5-b]pyridin-6-yl)-6-(3-hydroxypyrrolidin-1-yl)picolinamide] | 92% | 97%
14 | O=C(Nc1cc2sc(N3CCOCC3)nc2nc1C1CC1)c1cnn2cccnc12 [Example 105, N-(5-cyclopropyl-2-morpholinothiazolo[4,5-b]pyridin-6-yl)pyrazolo[1,5-a]pyrimidine-3-carboxamide] | 96% | 97%
15 | O=C(Nc1cc2sc(N3CCOCC3)nc2nc1N1CCCCC1)c1cncc(N2CC[C@H](O)C2)n1 [Example 63, (S)-6-(3-hydroxypyrrolidin-1-yl)-N-(2-morpholino-5-(piperidin-1-yl)thiazolo[4,5-b]pyridin-6-yl)pyrazine-2-carboxamide] | 95% | 95%
16 | Cc1cc(-c2cccc(C(=O)Nc3cc4sc(N5CCOCC5)nc4nc3N3CCC[C@@H](O)C3)n2)ccn1 [Example 41, (R)-N-(5-(3-hydroxypiperidin-1-yl)-2-morpholinothiazolo[4,5-b]pyridin-6-yl)-2′-methyl-[2,4′-bipyridine]-6-carboxamide] | 92% | 98%
17 | Cc1cc(-c2nc(C(=O)Nc3cc4oc(N5CCOCC5)nc4nc3N3CCCC(O)(CO)C3)co2)ccn1 (stereo not drawn) [Example 15, N-(5-(3-hydroxy-3-(hydroxymethyl)piperidin-1-yl)-2-morpholinooxazolo[4,5-b]pyridin-6-yl)-2-(2-methylpyridin-4-yl)oxazole-4-carboxamide hydrochloride] | 96% | 100%
18 | O=C(Nc1cc2sc(N3CCOCC3)nc2nc1N1CCCCC1)c1cncc(N2CCC(O)C2)n1 (stereo not drawn) [Example 54, 6-(3-hydroxypyrrolidin-1-yl)-N-(2-morpholino-5-(piperidin-1-yl)thiazolo[4,5-b]pyridin-6-yl)pyrazine-2-carboxamide hydrochloride] | 93% | 97%
19 | O=C(Nc1cc2sc(N3CCOCC3)nc2nc1N1CCCCC1)c1cccc(N2CCCC(O)C2)n1 (stereo not drawn) [Example 55, 6-(3-hydroxypiperidin-1-yl)-N-(2-morpholino-5-(piperidin-1-yl)thiazolo[4,5-b]pyridin-6-yl)picolinamide] | 94% | 98%
20 | NC1CCCN(c2ccn3ncc(C(=O)Nc4cc5sc(N6CCOCC6)nc5nc4N4CC[C@@H](O)C4)c3n2)C1 (stereo partly drawn) [Example 102, 5-(3-aminopiperidin-1-yl)-N-(5-((R)-3-hydroxypyrrolidin-1-yl)-2-morpholinothiazolo[4,5-b]pyridin-6-yl)pyrazolo[1,5-a]pyrimidine-3-carboxamide hydrochloride] | 21% | 56%
21 | O=C(Nc1cc2sc(N3CCOCC3)nc2nc1N1CCCCC1)c1ccnc(N2CCC(O)C2)n1 (stereo not drawn) [Example 53, 2-(3-hydroxypyrrolidin-1-yl)-N-(2-morpholino-5-(piperidin-1-yl)thiazolo[4,5-b]pyridin-6-yl)pyrimidine-4-carboxamide] | 90% | 97%
22 | O=C(Nc1cc2sc(N3CCOCC3)nc2nc1N1CCC[C@@H](O)C1)c1cccc(N2CC[C@H](O)C2)n1 [Example 28, N-(5-((R)-3-hydroxypiperidin-1-yl)-2-morpholinothiazolo[4,5-b]pyridin-6-yl)-6-((S)-3-hydroxypyrrolidin-1-yl)picolinamide] | 90% | 93%
23 | Nc1cccc(-c2nc(C(=O)Nc3cc4oc(N5CCOCC5)nc4nc3N3CCCCC3)co2)n1 [Example 93, 2-(6-aminopyridin-2-yl)-N-(2-morpholino-5-(piperidin-1-yl)oxazolo[4,5-b]pyridin-6-yl)oxazole-4-carboxamide] | 87% | 93%
24 | COC1CCN(c2cccc(C(=O)Nc3cc4sc(N5CCOCC5)nc4nc3N3CCCCC3)n2)CC1 [Example 31, 6-(4-methoxypiperidin-1-yl)-N-(2-morpholino-5-(piperidin-1-yl)thiazolo[4,5-b]pyridin-6-yl)picolinamide] | 90% | 98%
